Patent publication US12043632B2, “6-heteroaryloxy benzimidazoles and azabenzimidazoles as JAK2 inhibitors” (Ajax Therapeutics, Inc., priority 2020, dated 2024)

Molecular target: T1, JAK2 (JH1domain-catalytic, Y1007F,Y1008F) kinase (Homo sapiens, UniProt O60674, Y1007F/Y1008F)
T1 construct: JAK2 (JH1domain-catalytic, Y1007F,Y1008F) kinase was expressed as N-terminal fusion; made in house; host or cells: transiently transfected HEK293 cells
Assay: JAK2 JH1 Domain Binding Assay
Conditions: qPCR readout

T1 sequence (O60674 849-1124 Y1007F/Y1008F limits assumed): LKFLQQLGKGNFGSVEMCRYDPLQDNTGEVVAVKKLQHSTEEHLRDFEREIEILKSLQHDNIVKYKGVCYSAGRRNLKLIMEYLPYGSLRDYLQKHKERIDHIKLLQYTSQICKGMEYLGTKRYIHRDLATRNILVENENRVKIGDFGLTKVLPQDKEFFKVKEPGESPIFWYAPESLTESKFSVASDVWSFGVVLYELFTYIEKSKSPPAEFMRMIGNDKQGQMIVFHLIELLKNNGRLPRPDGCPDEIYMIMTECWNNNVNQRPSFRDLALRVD

| Kd [nM] | Structure (SMILES) |
| --- | --- |
| < 10 | Cn1c(Nc2cc(CN3CCCC3)cc(C(F)(F)F)c2)nc2ncc(Oc3cnn4ccncc34)c(Cl)c21 [Example I-277, 7-chloro-1-methyl-6-(pyrazolo[1,5-a]pyrazin-3-yloxy)-N-(3-(pyrrolidin-1-ylmethyl)-5-(trifluoromethyl)phenyl)-1H-imidazo[4,5-b]pyridin-2-amine] |
| < 10 | CC(=O)N1CC2(CC(n3nc(Nc4nc5ncc(Oc6cnn7ccccc67)c(Cl)c5n4C)cc3C(F)(F)F)C2)C1 [Example I-278, 1-(6-(3-((7-chloro-1-methyl-6-(pyrazolo[1,5-a]pyridin-3-yloxy)-1H-imidazo[4,5-b]pyridin-2-yl)amino)-5-(trifluoromethyl)-1H-pyrazol-1-yl)-2-azaspiro[3.3]heptan-2-yl)ethan-1-one] |
| < 10 | Cn1cc(C(F)(F)F)cc(Nc2nc3ncc(Oc4cnn5ccc(N6CCOCC6)cc45)c(C#N)c3n2C)c1=O [Example I-281, 1-methyl-2-((1-methyl-2-oxo-5-(trifluoromethyl)-1,2-dihydropyridin-3-yl)amino)-6-((5-morpholinopyrazolo[1,5-a]pyridin-3-yl)oxy)-1H-imidazo[4,5-b]pyridine-7-carbonitrile] |
| 10 to 50 | CNc1nccn2ncc(Oc3cnc4nc(Nc5cc(CN6CC[C@@H](N(C)C)C6)cc(C(F)(F)F)c5)n(C)c4c3Cl)c12 [Example I-282, (R)-7-chloro-N-(3-((3-(dimethylamino)pyrrolidin-1-yl)methyl)-5-(trifluoromethyl)phenyl)-1-methyl-6-((4-(methylamino)pyrazolo[1,5-a]pyrazin-3-yl)oxy)-1H-imidazo[4,5-b]pyridin-2-amine] |
| 10 to 50 | CN(C)[C@@H]1CCN(Cc2cc(C(F)(F)F)cc(Nc3nc4ncc(Oc5cnn6ccncc56)c(Cl)c4n3C)c2F)C1 [Example I-283, (R)-7-chloro-N-(3-((3-(dimethylamino)pyrrolidin-1-yl)methyl)-2-fluoro-5-(trifluoromethyl)phenyl)-1-methyl-6-(pyrazolo[1,5-a]pyrazin-3-yloxy)-1H-imidazo[4,5-b]pyridin-2-amine] |
| 10 to 50 | CNc1nccn2ncc(Oc3cnc4nc(Nc5cc(CN6CCCC6)cc(C(F)(F)F)c5)n(C)c4c3Cl)c12 [Example I-284, 7-chloro-1-methyl-6-((4-(methylamino)pyrazolo[1,5-a]pyrazin-3-yl)oxy)-N-(3-(pyrrolidin-1-ylmethyl)-5-(trifluoromethyl)phenyl)-1H-imidazo[4,5-b]pyridin-2-amine] |
| 10 to 50 | CN(C)[C@H]1CCN(Cc2cc(C(F)(F)F)cc(Nc3nc4ncc(Oc5cnn6ccncc56)c(Cl)c4n3C)c2F)C1 [Example I-285, (S)-7-chloro-N-(3-((3-(dimethylamino)pyrrolidin-1-yl)methyl)-2-fluoro-5-(trifluoromethyl)phenyl)-1-methyl-6-(pyrazolo[1,5-a]pyrazin-3-yloxy)-1H-imidazo[4,5-b]pyridin-2-amine] |
| 10 to 50 | CNc1nccn2ncc(Oc3cnc4nc(Nc5cc(CN6CC[C@H](N(C)C)C6)cc(C(F)(F)F)c5)n(C)c4c3Cl)c12 [Example I-286, (S)-7-chloro-N-(3-((3-(dimethylamino)pyrrolidin-1-yl)methyl)-5-(trifluoromethyl)phenyl)-1-methyl-6-((4-(methylamino)pyrazolo[1,5-a]pyrazin-3-yl)oxy)-1H-imidazo[4,5-b]pyridin-2-amine] |
| 10 to 50 | Cc1nc(Nc2nc3ncc(Oc4cnn5ccncc45)c(Cl)c3n2C)nc(C)c1N1CCCC1 [Example I-287, 7-chloro-N-(4,6-dimethyl-5-(pyrrolidin-1-yl)pyrimidin-2-yl)-1-methyl-6-(pyrazolo[1,5-a]pyrazin-3-yloxy)-1H-imidazo[4,5-b]pyridin-2-amine] |
| 10 to 50 | Cn1cc(C(F)(F)F)cc(Nc2nc3ncc(Oc4cnc5[nH]cc(F)c5c4)c(Cl)c3n2C)c1=O [Example I-288, 3-((7-chloro-6-((3-fluoro-1H-pyrrolo[2,3-b]pyridin-5-yl)oxy)-1-methyl-1H-imidazo[4,5-b]pyridin-2-yl)amino)-1-methyl-5-(trifluoromethyl)pyridin-2(1H)-one] |

More lines, now with the values behind:

| Structure (SMILES) | Kd [nM] |
| --- | --- |
| CNc1nccn2ncc(Oc3cnc4nc(Nc5cc(CN(C)C)cc(C(F)(F)F)c5)n(C)c4c3Cl)c12 [Example I-255, 7-chloro-N-(3-((dimethylamino)methyl)-5-(trifluoromethyl)phenyl)-1-methyl-6-((4-(methylamino)pyrazolo[1,5-a]pyrazin-3-yl)oxy)-1H-imidazo[4,5-b]pyridin-2-amine] | < 10 |
| Cn1c(Nc2cc(CN3CCC3)cc(C(F)(F)F)c2)nc2ncc(Oc3cnn4ccncc34)c(Cl)c21 [Example I-256, N-(3-(azetidin-1-ylmethyl)-5-(trifluoromethyl)phenyl)-7-chloro-1-methyl-6-(pyrazolo[1,5-a]pyrazin-3-yloxy)-1H-imidazo[4,5-b]pyridin-2-amine] | < 10 |
| Cn1c(Nc2cc(CN3CC(O)C3)cc(C(F)(F)F)c2)nc2ncc(Oc3cnn4ccncc34)c(Cl)c21 [Example I-258, 1-(3-((7-chloro-1-methyl-6-(pyrazolo[1,5-a]pyrazin-3-yloxy)-1H-imidazo[4,5-b]pyridin-2-yl)amino)-5-(trifluoromethyl)benzyl)azetidin-3-ol] | < 10 |
| CNc1nccn2ncc(Oc3cnc4nc(Nc5cc(OC6CN(C)C6)cc(C(F)(F)F)c5)n(C)c4c3Cl)c12 [Example I-259, 7-chloro-1-methyl-6-((4-(methylamino)pyrazolo[1,5-a]pyrazin-3-yl)oxy)-N-(3-((1-methylazetidin-3-yl)oxy)-5-(trifluoromethyl)phenyl)-1H-imidazo[4,5-b]pyridin-2-amine] | 10 to 50 |
| Cn1cc(C(F)(F)F)cc(Nc2nc3ncc(Oc4cnc5[nH]ncc5c4)c(C#N)c3n2C)c1=O [Example I-260, 6-((1H-pyrazolo[3,4-b]pyridin-5-yl)oxy)-1-methyl-2-((1-methyl-2-oxo-5-(trifluoromethyl)-1,2-dihydropyridin-3-yl)amino)-1H-imidazo[4,5-b]pyridine-7-carbonitrile] | < 10 |
| Cn1cc(C(F)(F)F)cc(Nc2nc3ncc(Oc4cnc5[nH]ncc5c4)c(Cl)c3n2C)c1=O [Example I-261, 3-((6-((1H-pyrazolo[3,4-b]pyridin-5-yl)oxy)-7-chloro-1-methyl-1H-imidazo[4,5-b]pyridin-2-yl)amino)-1-methyl-5-(trifluoromethyl)pyridin-2(1H)-one] | < 10 |
| CNc1nccn2ncc(Oc3cnc4nc(Nc5cc(CN6CCC6)cc(C(F)(F)F)c5)n(C)c4c3Cl)c12 [Example I-263, N-(3-(azetidin-1-ylmethyl)-5-(trifluoromethyl)phenyl)-7-chloro-1-methyl-6-((4-(methylamino)pyrazolo[1,5-a]pyrazin-3-yl)oxy)-1H-imidazo[4,5-b]pyridin-2-amine] | < 10 |
| CNc1nccn2ncc(Oc3cnc4nc(Nc5cc(CN6CC(O)C6)cc(C(F)(F)F)c5)n(C)c4c3Cl)c12 [Example I-264, 1-(3-((7-chloro-1-methyl-6-((4-(methylamino)pyrazolo[1,5-a]pyrazin-3-yl)oxy)-1H-imidazo[4,5-b]pyridin-2-yl)amino)-5-(trifluoromethyl)benzyl)azetidin-3-ol] | 10 to 50 |
| Cn1cc(C(F)(F)F)cc(Nc2nc3ncc(Oc4cnc5[nH]ccc5c4)c(C#N)c3n2C)c1=O [Example I-265, 6-((1H-pyrrolo[2,3-b]pyridin-5-yl)oxy)-1-methyl-2-((1-methyl-2-oxo-5-(trifluoromethyl)-1,2-dihydropyridin-3-yl)amino)-1H-imidazo[4,5-b]pyridine-7-carbonitrile] | < 10 |
| Cn1c(F)c(C2CC2)cc(Nc2nc3ncc(Oc4cnn5ccncc45)c(Cl)c3n2C)c1=O [Example I-266, 3-((7-chloro-1-methyl-6-(pyrazolo[1,5-a]pyrazin-3-yloxy)-1H-imidazo[4,5-b]pyridin-2-yl)amino)-5-cyclopropyl-6-fluoro-1-methylpyridin-2(1H)-one] | < 10 |
| Cc1nc(Nc2nc3ncc(Oc4cnn5ccncc45)c(Cl)c3n2C)nc(C)c1N1CCC1 [Example I-268, N-(5-(azetidin-1-yl)-4,6-dimethylpyrimidin-2-yl)-7-chloro-1-methyl-6-(pyrazolo[1,5-a]pyrazin-3-yloxy)-1H-imidazo[4,5-b]pyridin-2-amine] | 50 to 1000 |
| CN(C)[C@@H]1CCN(Cc2cc(Nc3nc4ncc(Oc5cnn6ccncc56)c(Cl)c4n3C)cc(C(F)(F)F)c2)C1 [Example I-271, (R)-7-chloro-N-(3-((3-(dimethylamino)pyrrolidin-1-yl)methyl)-5-(trifluoromethyl)phenyl)-1-methyl-6-(pyrazolo[1,5-a]pyrazin-3-yloxy)-1H-imidazo[4,5-b]pyridin-2-amine] | < 10 |
| COCCOc1nccn2ncc(Oc3cnc4nc(Nc5cc(C(F)(F)F)n(C6CC7(COC7)C6)n5)n(C)c4c3Cl)c12 [Example I-273, N-(1-(2-oxaspiro[3.3]heptan-6-yl)-5-(trifluoromethyl)-1H-pyrazol-3-yl)-7-chloro-6-((4-(2-methoxyethoxy)pyrazolo[1,5-a]pyrazin-3-yl)oxy)-1-methyl-1H-imidazo[4,5-b]pyridin-2-amine] | 10 to 50 |
| CN(C)c1cc(Nc2nc3ncc(Oc4cnn5ccncc45)c(Cl)c3n2C)cc(C(F)(F)F)n1 [Example I-274, N^4-(7-chloro-1-methyl-6-(pyrazolo[1,5-a]pyrazin-3-yloxy)-1H-imidazo[4,5-b]pyridin-2-yl)-N^2,N^2-dimethyl-6-(trifluoromethyl)pyridine-2,4-diamine] | 10 to 50 |
| CNc1nccn2ncc(Oc3cnc4nc(Nc5cc(OCC6CN(C)C6)cc(C(F)(F)F)c5)n(C)c4c3Cl)c12 [Example I-275, 7-chloro-1-methyl-6-((4-(methylamino)pyrazolo[1,5-a]pyrazin-3-yl)oxy)-N-(3-((1-methylazetidin-3-yl)methoxy)-5-(trifluoromethyl)phenyl)-1H-imidazo[4,5-b]pyridin-2-amine] | 10 to 50 |
| CNc1nccn2ncc(Oc3cnc4nc(Nc5cc(C(F)(F)F)n([C@@H]6CCOC6)n5)n(C)c4c3Cl)c12 [Example I-276, (R)-7-chloro-1-methyl-6-((4-(methylamino)pyrazolo[1,5-a]pyrazin-3-yl)oxy)-N-(1-(tetrahydrofuran-3-yl)-5-(trifluoromethyl)-1H-pyrazol-3-yl)-1H-imidazo[4,5-b]pyridin-2-amine] | 10 to 50 |
